Reference: paper PMC4965013, “Open Source Drug Discovery with the Malaria Box Compound Collection for Neglected Diseases and Beyond” (PLoS Pathogens, 2016)
Each block holds one molecule with its values, some of them ahead of it.

Tests used:
[1] = test system: P. falciparum 3D7 trophozoites; assay: Metabolomic fingerprint profiling LC-MS; format: cell-based, Plasmodium falciparum; parameters: UDP-D-glucose / ADP-D-glucose: unit not given here; conditions: for Acetyllysine / N-acetyl-L-ornithine / N-carbamoyl-L-aspartate / NADPH / dAMP / dCMP / dTDP / dTMP / dTTP / dihydroorotate / orotate / DLH / DLS/SDL/SID / PD / PEE / PVNF / 3-phosphoglycerate / ADP-D-glucose / ATP / CDP / D-sedoheptulose-1/7-phosphate / FAD / GMP / NAD+ / NADP+ / Octoluse Bisphosphate / Pyroglutamic acid / UDP-D-glucose / UDP-D-glucuronate / UDP-N-acetyl-glucosamine / UDP / UMP / UTP / a-ketoglutarate / citrate/isocitrate / cytidine / dATP / dGMP/AMP / fumarate / glucose-1/6-phosphate / glycerate / guanine / guanosine / hypoxanthine / indole / inosine / nicotinate / ornithine / phosphoenolpyruvate / pyruvate / ribose-phosphate / sarcosine/alanine / sn-glycerol-3-phosphate / succinate/methylmalonic acid / uridine / xanthosine: S2 Table Metabolomics; for Acetyllysine: metabolite Acetyllysine; for N-acetyl-L-ornithine: metabolite N-acetyl-L-ornithine; for N-carbamoyl-L-aspartate: metabolite N-carbamoyl-L-aspartate; for NADPH: metabolite NADPH; for dAMP: metabolite dAMP; for dCMP: metabolite dCMP; for dTDP: metabolite dTDP; for dTMP: metabolite dTMP; for dTTP: metabolite dTTP; for dihydroorotate: metabolite dihydroorotate; for orotate: metabolite orotate; for DLH: peptide DLH; for DLS/SDL/SID: peptide DLS/SDL/SID; for PD: peptide PD; for PEE: peptide PEE; for PVNF: peptide PVNF; for 3-phosphoglycerate: metabolite 3-phosphoglycerate; for ADP-D-glucose: metabolite ADP-D-glucose; for ATP: metabolite ATP; for CDP: metabolite CDP; for CDP / D-sedoheptulose-1/7-phosphate / GMP / Octoluse Bisphosphate / UDP / UMP / UTP / citrate/isocitrate / dGMP/AMP / fumarate / glucose-1/6-phosphate / glycerate / guanine / guanosine / inosine / pyruvate / sarcosine/alanine / succinate/methylmalonic acid / uridine / xanthosine: change in metabolite level after compound treatment; for D-sedoheptulose-1/7-phosphate: metabolite D-sedoheptulose-1/7-phosphate; for FAD: metabolite FAD; for GMP: metabolite GMP; for NAD+: metabolite NAD+; for NADP+: metabolite NADP+; for Octoluse Bisphosphate: metabolite Octoluse Bisphosphate; for Pyroglutamic acid: metabolite Pyroglutamic acid; for UDP-D-glucose: metabolite UDP-D-glucose; for UDP-D-glucuronate: metabolite UDP-D-glucuronate; for UDP-N-acetyl-glucosamine: metabolite UDP-N-acetyl-glucosamine; for UDP: metabolite UDP; for UMP: metabolite UMP; for UTP: metabolite UTP; for a-ketoglutarate: metabolite a-ketoglutarate; for citrate/isocitrate: metabolite citrate/isocitrate; for cytidine: metabolite cytidine; for dATP: metabolite dATP; for dGMP/AMP: metabolite dGMP/AMP; for fumarate: metabolite fumarate; for glucose-1/6-phosphate: metabolite glucose-1/6-phosphate; for glycerate: metabolite glycerate; for guanine: metabolite guanine; for guanosine: metabolite guanosine; for hypoxanthine: metabolite hypoxanthine; for indole: metabolite indole; for inosine: metabolite inosine; for 2_3-Diphosphoglyceric acid / 4-phosphopantothenate / 6-phospho-D-gluconate / FMN / IMP / Pyrophosphate / Sedoheptoluse bisphosphate / cyclic-AMP / glutathione disulfide / lactate / myo-inositol: metabolite level change after treatment; for nicotinate: metabolite nicotinate; for ornithine: metabolite ornithine; for phosphoenolpyruvate: metabolite phosphoenolpyruvate; for pyruvate: metabolite pyruvate; for ribose-phosphate: metabolite ribose-phosphate; for sarcosine/alanine: metabolite sarcosine/alanine; for sn-glycerol-3-phosphate: metabolite sn-glycerol-3-phosphate; for succinate/methylmalonic acid: metabolite succinate/methylmalonic acid; for uridine: metabolite uridine; for xanthosine: metabolite xanthosine
P. falciparum = assay: EC50 listed in S2 Table Metabolomics (used to set the concentration tested); format: cell-based; conditions: Plasmodium falciparum; EC50 used for Factor_XEC50 in metabolomics; read-out: EC50_nM

EC50 (P. falciparum): 263 nM
Compound: Cc1cc(C=C2SC(=Nc3ccccc3)N(C3CCCC3)C2=O)c(C)n1-c1ccc(Cl)cc1 [MMV666688]
Acetyllysine [1]: -0.1624
N-acetyl-L-ornithine [1]: -0.0421
N-carbamoyl-L-aspartate [1]: 1.4864
NADPH [1]: 0.2408
dAMP [1]: 0.03218
dCMP [1]: -0.069
dTDP [1]: -0.4979
dTMP [1]: -0.4157
dTTP [1]: -0.4815
dihydroorotate [1]: 2.242
orotate [1]: -0.3391
DLH [1]: -0.1014
DLS/SDL/SID [1]: -0.07676
PD [1]: 0.01194
PEE [1]: -0.1091
PVNF [1]: -0.1399
3-phosphoglycerate [1]: -0.02892
ADP-D-glucose [1]: -0.07639
ATP [1]: -0.1967
CDP [1]: -0.456
D-sedoheptulose-1/7-phosphate [1]: -0.2168
FAD [1]: -0.003318
GMP [1]: 0.2544
NAD+ [1]: -0.2173
NADP+ [1]: -0.08704
Octoluse Bisphosphate [1]: -0.1579
Pyroglutamic acid [1]: 0.04307
UDP-D-glucose [1]: -0.04445
UDP-D-glucuronate [1]: -0.08539
UDP-N-acetyl-glucosamine [1]: -0.1189
UDP [1]: -0.6253
UMP [1]: -0.03143
UTP [1]: -0.1882
a-ketoglutarate [1]: 0.009693
citrate/isocitrate [1]: -0.05943
cytidine [1]: 0.03268
dATP [1]: 0.7542
dGMP/AMP [1]: -0.3421
fumarate [1]: -0.03259
glucose-1/6-phosphate [1]: 0.01665
glycerate [1]: 0.07227
guanine [1]: 0.07709
guanosine [1]: 0.1849
hypoxanthine [1]: 0.08201
indole [1]: 0.1358
inosine [1]: 0.04909
2_3-Diphosphoglyceric acid [1]: -0.2563
4-phosphopantothenate [1]: -0.1327
6-phospho-D-gluconate [1]: -0.08404
FMN [1]: -0.1061
IMP [1]: -0.002655
Pyrophosphate [1]: 0.3465
Sedoheptoluse bisphosphate [1]: -0.1911
cyclic-AMP [1]: -0.1214
glutathione disulfide [1]: -0.05112
lactate [1]: 0.01618
myo-inositol [1]: 0.01299
nicotinate [1]: -0.0155
ornithine [1]: -0.1088
phosphoenolpyruvate [1]: -0.02123
pyruvate [1]: 0.008296
ribose-phosphate [1]: -0.004186
sarcosine/alanine [1]: -0.1822
sn-glycerol-3-phosphate [1]: 0.09746
succinate/methylmalonic acid [1]: -0.05454
uridine [1]: -0.08058
xanthosine [1]: 0.111

EC50 (P. falciparum): 477 nM
Compound: COc1ccc(-c2c(C)nn3c(N)c(C#N)cnc23)cc1OC [MMV396797]
Acetyllysine [1]: -1.561
N-acetyl-L-ornithine [1]: -1.053
N-carbamoyl-L-aspartate [1]: 1.252
NADPH [1]: 0.3593
dAMP [1]: 0.5405
dCMP [1]: 1.351
dTDP [1]: 0.6464
dTMP [1]: 1.055
dTTP [1]: 0.1329
dihydroorotate [1]: 0.9521
orotate [1]: -0.1403
DLH [1]: -2.487
DLS/SDL/SID [1]: -1.077
PD [1]: -0.9589
PEE [1]: -1.335
PVNF [1]: -1.44
3-phosphoglycerate [1]: -0.332
ADP-D-glucose [1]: 0.000409
ATP [1]: -0.6534
CDP [1]: 0.6836
D-sedoheptulose-1/7-phosphate [1]: 0.6682
FAD [1]: 0.02733
GMP [1]: 0.6724
NAD+ [1]: 0.9649
NADP+ [1]: 0.1001
Octoluse Bisphosphate [1]: -0.3618
Pyroglutamic acid [1]: -0.2754
UDP-D-glucose [1]: 0.1529
UDP-D-glucuronate [1]: 0.1151
UDP-N-acetyl-glucosamine [1]: 0.3642
UDP [1]: 0.7706
UMP [1]: 0.7638
UTP [1]: 0.02297
a-ketoglutarate [1]: -0.2189
citrate/isocitrate [1]: -0.742
cytidine [1]: -0.8311
dATP [1]: -0.6595
dGMP/AMP [1]: 0.1443
fumarate [1]: -0.5921
glucose-1/6-phosphate [1]: 0.3476
glycerate [1]: -0.7107
guanine [1]: -0.1249
guanosine [1]: -0.2185
hypoxanthine [1]: -0.6773
indole [1]: -0.01428
inosine [1]: -0.2482
2_3-Diphosphoglyceric acid [1]: 0.4884
4-phosphopantothenate [1]: 0.5554
6-phospho-D-gluconate [1]: 0.1152
FMN [1]: 0.2278
IMP [1]: 0.7032
Pyrophosphate [1]: 0.391
Sedoheptoluse bisphosphate [1]: -0.2371
cyclic-AMP [1]: 0.5443
glutathione disulfide [1]: 0.05378
lactate [1]: -0.5978
myo-inositol [1]: -0.8022
nicotinate [1]: 0.06441
ornithine [1]: -0.4887
phosphoenolpyruvate [1]: -0.1659
pyruvate [1]: -0.5507
ribose-phosphate [1]: -0.3757
sarcosine/alanine [1]: -0.5535
sn-glycerol-3-phosphate [1]: -0.1272
succinate/methylmalonic acid [1]: -0.001406
uridine [1]: -0.3835
xanthosine [1]: -0.6585

EC50 (P. falciparum): 140 nM
Compound: COc1ccccc1CNC(=O)CCn1c(=O)[nH]c2ccsc2c1=O [MMV019066]
Acetyllysine [1]: 0.07735
N-acetyl-L-ornithine [1]: -0.0529
N-carbamoyl-L-aspartate [1]: 0.05336
NADPH [1]: -0.3877
dAMP [1]: -0.3418
dCMP [1]: -0.4851
dTDP [1]: 0.1634
dTMP [1]: 0.1236
dTTP [1]: -0.2106
dihydroorotate [1]: 0.243
orotate [1]: -0.2
DLH [1]: -0.2144
DLS/SDL/SID [1]: -0.3411
PD [1]: 0.09576
PEE [1]: 0.0022
PVNF [1]: -0.1895
3-phosphoglycerate [1]: -0.09413
ADP-D-glucose [1]: -0.05903
ATP [1]: -0.2412
CDP [1]: 0.1136
D-sedoheptulose-1/7-phosphate [1]: 0.1088
FAD [1]: 0.05372
GMP [1]: 0.1058
NAD+ [1]: 0.8616
NADP+ [1]: -0.0134
Octoluse Bisphosphate [1]: -0.2214
Pyroglutamic acid [1]: -0.1934
UDP-D-glucose [1]: 0.05907
UDP-D-glucuronate [1]: -0.137
UDP-N-acetyl-glucosamine [1]: 0.07368
UDP [1]: 0.06631
UMP [1]: 0.4511
UTP [1]: -0.2134
a-ketoglutarate [1]: -0.0676
citrate/isocitrate [1]: -0.2257
cytidine [1]: 0.1038
dATP [1]: -0.07834
dGMP/AMP [1]: 0.0855
fumarate [1]: 1.364
glucose-1/6-phosphate [1]: 0.5644
glycerate [1]: -0.201
guanine [1]: 0.002341
guanosine [1]: -0.12
hypoxanthine [1]: -0.07458
indole [1]: -0.09687
inosine [1]: -0.05497
2_3-Diphosphoglyceric acid [1]: -0.2512
4-phosphopantothenate [1]: -0.02128
6-phospho-D-gluconate [1]: -0.003238
FMN [1]: -0.1662
IMP [1]: 0.2187
Pyrophosphate [1]: -0.2235
Sedoheptoluse bisphosphate [1]: -0.07937
cyclic-AMP [1]: -0.08199
glutathione disulfide [1]: 0.08045
lactate [1]: -0.3675
myo-inositol [1]: -0.05445
nicotinate [1]: -0.03534
ornithine [1]: 0.2934
phosphoenolpyruvate [1]: -0.1195
pyruvate [1]: -0.02123
ribose-phosphate [1]: -0.1454
sarcosine/alanine [1]: 0.007595
sn-glycerol-3-phosphate [1]: -0.1485
succinate/methylmalonic acid [1]: 0.2071
uridine [1]: 0.04529
xanthosine [1]: -0.08771
